This is an account of results in patent US20020016346A1, “Method for enhancing outflow of aqueous humor in treatment of glaucoma” (The Regents University of California, a California …, priority 1994, published 2002).

For data set [1], the target named is T1, Na+2Cl−K+ co-transporter (Oryctolagus cuniculus, UniProt P55015).
T1 construct: cotransporter system found in the cortical thick ascending limbs of the loop of Henle of mammals; from tissue; host or cells: dissected, perfused cortical thick ascending limb tubules of rabbit kidney
T1 sequence (P55015 1-1099): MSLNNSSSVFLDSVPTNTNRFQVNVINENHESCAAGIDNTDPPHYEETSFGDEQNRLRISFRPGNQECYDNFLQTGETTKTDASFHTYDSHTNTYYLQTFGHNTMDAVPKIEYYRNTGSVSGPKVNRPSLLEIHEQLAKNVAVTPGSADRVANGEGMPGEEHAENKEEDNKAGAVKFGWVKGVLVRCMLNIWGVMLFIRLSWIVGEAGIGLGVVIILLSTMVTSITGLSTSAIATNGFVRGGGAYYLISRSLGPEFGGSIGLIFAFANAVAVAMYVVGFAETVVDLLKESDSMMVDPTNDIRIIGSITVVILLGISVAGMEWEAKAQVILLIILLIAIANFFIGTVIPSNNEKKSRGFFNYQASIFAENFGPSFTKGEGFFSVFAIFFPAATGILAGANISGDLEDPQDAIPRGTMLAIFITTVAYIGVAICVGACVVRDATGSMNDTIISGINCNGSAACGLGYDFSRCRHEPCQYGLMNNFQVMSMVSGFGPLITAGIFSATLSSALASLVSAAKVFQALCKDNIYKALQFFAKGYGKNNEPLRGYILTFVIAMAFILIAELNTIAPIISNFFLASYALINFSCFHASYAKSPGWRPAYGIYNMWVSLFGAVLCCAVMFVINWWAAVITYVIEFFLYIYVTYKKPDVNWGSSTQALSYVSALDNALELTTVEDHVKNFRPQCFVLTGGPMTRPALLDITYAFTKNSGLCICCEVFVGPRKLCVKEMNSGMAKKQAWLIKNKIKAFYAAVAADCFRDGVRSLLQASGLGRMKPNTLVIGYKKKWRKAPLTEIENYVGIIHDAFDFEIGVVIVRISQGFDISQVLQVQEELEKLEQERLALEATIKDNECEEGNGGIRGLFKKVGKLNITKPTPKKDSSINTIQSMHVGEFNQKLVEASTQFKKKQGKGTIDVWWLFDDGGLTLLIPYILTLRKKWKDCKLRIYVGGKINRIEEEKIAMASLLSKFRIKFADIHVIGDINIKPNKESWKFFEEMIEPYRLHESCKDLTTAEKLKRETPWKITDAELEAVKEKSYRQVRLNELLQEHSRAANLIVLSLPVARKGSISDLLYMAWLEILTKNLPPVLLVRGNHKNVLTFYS
Put plainly: Inhibition of short circuit current in perfused cortical thick ascending limb of the loop of Henle. The format is cell-based, rabbit. The note with it: concentration blocking 50% of short circuit current. From the text: B. Burg et al. (Am J. Physiol. 210:1293-1298, 1966) as modified by […] Arch. 390:30-37, 1981) and […] et al. (Pflüger's Arch. 389:175-176, 1981), both of which are incorporated herein by reference in their entireties. In brief, this in vitro test uses the Na-2Cl^- K^+ cotransporter system found in the cortical thick ascending limbs of the loop of Henle of mammals, particularly rabbits, for example, female white New Zealand rabbits. The tubules are dissected and perfused according to the known techniques, but with the rate of perfusion through the lumen kept high (10-20 nl/min) to prevent changes in the ionic composition of the perfusate along the perfused tubule. As control perfusate, a solution containing (mM): NaCl 145; […] KH2PO4 0.4; MgCl2 1; Ca gluconate 1.3; and glucose 5 is used on both sides of the epithelium with pH adjusted to 7.4 The transepithelial potential (Vtc) is recorded continuously on both ends of the tubule. […] The ratio of both values ([…] the equivalent short circuit current Itc. There is a direct relationship between the decrease of Itc and the inhibition of the Na^+2Cl^-K^+ co-transporter by contact with the test compound ([…] et al., Klin. Wochenschr. 61:1019-1027, 1983). For each drug under study, dose-response curves are established by adding compounds at various concentrations to the luminal perfusate with at least three determinations for each concentration. […] Details of this method have been published previously in M. E. O'Donnell, J. Biol. Chem. 264:11559-11566, 1991, which is incorporated herein by reference in its entirety. An illustration of the use of this method is found in Example 1B of this application.

Data set [2] is described as follows: Lipophilicity (log P′), n-octanol/phosphate buffer pH 7.4 shake-flask or RP-HPLC. The format is physicochemical. As for the experimental part: The lipophilicity of a compound is expressed in terms of an octanol:water coefficient determined by the standard technique of radiolabelling the compound and introducing a small amount into equal volumes of octanol and tris buffer (50 mM, pH 7.4). Generally the lipophilicity (log P′) is expressed as the logarithm of the partition coefficient in n-octanol/phosphate buffer, pH 7.4 using the well known shake-flask method as described by Cloux, et al., J. Pharm. Belg., 43:141-151, 1973, which is incorporated herein by reference in its entirety. The coefficient of lipophilicity (log P′) of the compounds useful for topical application to decrease intra-ocular pressure is preferably at least 0.005, and more preferably at least 0.01.
The lipophilicity of the aqueous humor outflow-increasing compounds of this invention can also be determined using a reversed phase, high performance liquid chromatograph (RP-HPLC) system for determination of the log P′ of the drug as described in B. Masereel, et al. (J. Pharm. Pharmacol. 44:589-593, 1992), which is incorporated herein by reference in its entirety. Briefly, a reversed phase column (RP-18) is equilibrated with n-propanol/phosphate buffer, pH 7.4 at a ratio of 30:70). Compounds to be tested are dissolved and eluted with the same solution. A series of standards with a wide range of lipophilicity, as determined by the shake-flask method, is run and a calibration curve is established for each session. KNO3 is injected to determine the void volume and […] is determined, wherein tr is the drug retention time andot is the retention time of NO3-. Calibration curves are calculated using log P′ and log k′ values. Log P′ values of other compounds are obtained by interpolation of the standard curves.

Data set [3] concerns the target T2, Na—K—Cl cotransport (Bos taurus, UniProt F1MS08).
T2 sequence (F1MS08 1-1204): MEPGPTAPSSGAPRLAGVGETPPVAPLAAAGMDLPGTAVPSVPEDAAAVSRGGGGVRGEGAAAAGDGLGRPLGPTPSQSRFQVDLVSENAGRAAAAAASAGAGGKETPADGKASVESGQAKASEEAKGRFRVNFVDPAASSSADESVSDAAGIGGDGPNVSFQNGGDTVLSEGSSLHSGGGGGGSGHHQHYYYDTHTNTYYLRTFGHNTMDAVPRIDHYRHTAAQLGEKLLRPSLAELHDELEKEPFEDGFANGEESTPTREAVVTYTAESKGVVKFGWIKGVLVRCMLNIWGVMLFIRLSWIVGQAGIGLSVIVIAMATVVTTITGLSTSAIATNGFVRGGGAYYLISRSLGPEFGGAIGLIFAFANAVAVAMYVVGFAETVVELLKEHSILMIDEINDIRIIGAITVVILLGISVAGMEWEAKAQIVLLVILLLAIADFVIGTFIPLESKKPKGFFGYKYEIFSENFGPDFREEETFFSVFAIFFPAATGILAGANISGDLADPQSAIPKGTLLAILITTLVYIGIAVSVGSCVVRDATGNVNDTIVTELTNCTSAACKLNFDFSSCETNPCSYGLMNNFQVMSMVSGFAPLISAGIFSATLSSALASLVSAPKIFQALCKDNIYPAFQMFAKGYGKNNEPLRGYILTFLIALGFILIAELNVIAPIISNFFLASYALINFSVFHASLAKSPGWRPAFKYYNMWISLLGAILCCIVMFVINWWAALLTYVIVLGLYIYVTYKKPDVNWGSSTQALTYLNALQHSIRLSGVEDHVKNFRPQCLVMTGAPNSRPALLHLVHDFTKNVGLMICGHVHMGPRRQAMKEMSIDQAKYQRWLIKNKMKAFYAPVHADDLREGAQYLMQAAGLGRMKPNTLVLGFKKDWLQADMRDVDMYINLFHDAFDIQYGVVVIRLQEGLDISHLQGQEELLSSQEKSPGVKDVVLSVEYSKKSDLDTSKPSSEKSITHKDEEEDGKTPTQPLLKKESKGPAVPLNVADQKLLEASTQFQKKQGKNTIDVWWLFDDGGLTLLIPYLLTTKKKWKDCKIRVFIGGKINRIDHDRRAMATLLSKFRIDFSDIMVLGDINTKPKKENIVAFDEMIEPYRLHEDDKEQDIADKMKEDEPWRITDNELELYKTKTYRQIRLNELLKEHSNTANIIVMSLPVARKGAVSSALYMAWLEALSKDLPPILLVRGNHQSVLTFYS
Put plainly: K influx (86Rb) in bovine TM cell monolayers. The format is cell-based. The note with it: bovine TM cells; VP 100 nM, NE 10 μM, Ach 1 μM, cAMP 50 μM, cGMP 50 μM, A23187 1 μM, PMA 10 nM, Ca-free medium plus 5 μM BAPTA-AM; control 25.6 ± 0.71. The protocol: Details of this method have been published previously (O'Donnell, M. E., supra, 1989). Briefly, bovine or human TM cell monolayers on 24 well plates were equilibrated for 10 minutes at 37° C. in a Hepes-buffered minimal essential medium (MEM) containing (in mM): 144 Na, 147 Cl, 5.8 K, 1.2 Ca, 4.2 HCO3, 0.4 H2PO4, […], 0.4 SO4, 5.6 glucose and 20 Hepes. […] The assay medium also contained ^86Rb (1 μCi/ml) (Dupont New England Nuclear, Boston, Mass.). The assay was terminated by rinsing the wells with ice-cold isotonic MgCl2, then extracting the contents with 0.2% sodium dodecyl sulfate (SDS), and determining the amount of radioactive contents by liquid scintillation. Osmolarities of all preincubation and assay media were verified by osmometry (Model 3W2, Advanced Instruments, Norwood, Mass.).
The effects of hormones, neurotransmitters and second messengers on Bumetanide-sensitive K influx of bovine trabecular meshwork cells were assessed using the procedures of Example 1. […] The control is the Hepes-buffered medium containing Na, K, Cl, CA and other ions as described in Example 1B. […] The data represent the mean values±SEM of quadruplicate determinations from two experiments.

Read-outs that look alike come from different tables or passages of the source.

With `Cc1cccc(Nc2ccncc2S(=O)(=O)NC(=O)NC(C)C)c1` [Compound 7], in data set [1] (read-out: IC50), the 50% inhibitory concentration (IC50) came to 200 nM. In data set [2], the logP was 0.45.

In the case of `O=C(NC1CCCCC1)NS(=O)(=O)c1cnccc1NC1CCCCCCCCCCC1` [Compound 18], the half-maximal inhibitory concentration (IC50) result is “inactive” in data set [1] and more than 100000 nM in data set [1] (read-out: IC50). The molecule further displayed a log partition coefficient (logP) in data set [2] of 3.45.

Turning to `NC[C@H](O)c1ccc(O)c(O)c1` [NE, norepinephrine], the “BUMETANIDE-SENSITIVE K INFLUX” value in data set [3] worked out at 18.6 ± 1.79 μmol/g protein/min.

For `O=C(NC1CCCCCC1)NS(=O)(=O)c1cnccc1NC1CCCCCC1` [Compound 13], in data set [1] (read-out: IC50), the half-inhibitory concentration (IC50) worked out at 2800 nM. Moreover, in data set [2], the lipophilicity (logP) came to 2.06.

As for `O=S(=O)(NC(=S)NC1CCCCC1)c1cnccc1NC1CCCCCC1` [Compound 20], the IC50 in data set [1] (read-out: IC50) was 790 nM. The logP in data set [2] worked out at 1.79.

On to `O=C(NS(=O)(=O)c1cnccc1NC1CCCCC1)N1CCCCC1` [Compound 21], for which the concentration for half-maximal inhibition (IC50) in data set [1] (read-out: IC50) was 320 nM. In data set [2], this molecule came in with a logP of 0.62.

For `O=C(NS(=O)(=O)c1cnccc1NC1CCCCCCC1)N1CCCCC1` [Compound 23], in data set [1] (read-out: IC50), the IC50 is 150 nM. The molecule further had a logP in data set [2] of 1.65.

On to `O=C(NC1CCCCCCC1)NS(=O)(=O)c1cnccc1NC1CCCCCC1` [Compound 16], for which the IC50 in data set [1] (read-out: IC50) is 1700 nM. In data set [2], the logP came out at 2.44.

`O=C(NC1CCCCCC1)NS(=O)(=O)c1cnccc1NC1CCCCC1` [Compound 12]: in data set [1] (read-out: IC50), the half-maximal inhibitory concentration (IC50) came to 9500 nM. The log partition coefficient (logP) in data set [2] came to 1.72.

On to `CC(C)NC(=O)NS(=O)(=O)c1cnccc1NC1CCCCC1` [Compound 8], for which the IC50 in data set [1] (read-out: IC50) worked out at 700 nM. For the same molecule, the logP in data set [2] is 0.58.

Turning to `O=C(NC1CCCCCC1)NS(=O)(=O)c1cnccc1NC1CCCCCCC1` [Compound 14], in data set [1] (read-out: IC50), the IC50 stood at 2000 nM. Further, the logP in data set [2] was 2.45.

Regarding `O=C(NC1CCCCC1)NS(=O)(=O)c1cnccc1NC1CCCCCC1` [Compound 10], the 50% inhibitory concentration (IC50) in data set [1] (read-out: IC50) was 3500 nM. In addition, the lipophilicity (logP) in data set [2] was 1.67.

With `O=C(NC1CCCCC1)NS(=O)(=O)c1cnccc1NC1CCCCCCC1` [Compound 11], in data set [1] (read-out: IC50), the IC50 turned out to be 470 nM. In data set [2], this molecule gave a logP of 2.05.

As to `O=C(NS(=O)(=O)c1cnccc1NC1CCCCCC1)N1CCCCC1` [Compound 22], the IC50 in data set [1] (read-out: IC50) turned out to be 250 nM. In data set [2], this molecule had a logP of 1.24.

Consider `CC(C)NC(=S)NS(=O)(=O)c1cnccc1NC1CCCCCC1` [Compound 19], for which the IC50 in data set [1] (read-out: IC50) stood at 1300 nM. The molecule further registered a log partition coefficient (logP) in data set [2] of 0.96.

Turning to `O=C(NC1CCCCCCC1)NS(=O)(=O)c1cnccc1NC1CCCCCCC1` [Compound 17], the IC50 in data set [1] (read-out: IC50) stood at 560 nM. The same molecule yielded a log partition coefficient (logP) in data set [2] of 2.7.

Regarding `O=C(NC1CCCCC1)NS(=O)(=O)c1cnccc1NC1CCCCC1` [Compound 9], the half-maximal inhibitory concentration (IC50) in data set [1] (read-out: IC50) is 19000 nM. Also, the logP in data set [2] was found to be 1.33.

On to `O=C(NC1CCCCCCC1)NS(=O)(=O)c1cnccc1NC1CCCCC1` [Compound 15], for which, in data set [1] (read-out: IC50), the IC50 was determined as 1400 nM. Further, the logP in data set [2] was found to be 2.07.
